The source made the active and inactive calls. The rule behind the calls is not given here.
Columns and labels:
[1] = target: T1, Apelin receptor (Rattus norvegicus) (UniProt Q9JHG3); assay: (§1) Agonist activity at rat apelin receptor expressed in CHO cell membranes coexpressing EGFP assessed as inhibition of forskolin-induced cAMP production after 30 mins by fluorescence analysis; type: functional, cell-based
T1 sequence (whole entry): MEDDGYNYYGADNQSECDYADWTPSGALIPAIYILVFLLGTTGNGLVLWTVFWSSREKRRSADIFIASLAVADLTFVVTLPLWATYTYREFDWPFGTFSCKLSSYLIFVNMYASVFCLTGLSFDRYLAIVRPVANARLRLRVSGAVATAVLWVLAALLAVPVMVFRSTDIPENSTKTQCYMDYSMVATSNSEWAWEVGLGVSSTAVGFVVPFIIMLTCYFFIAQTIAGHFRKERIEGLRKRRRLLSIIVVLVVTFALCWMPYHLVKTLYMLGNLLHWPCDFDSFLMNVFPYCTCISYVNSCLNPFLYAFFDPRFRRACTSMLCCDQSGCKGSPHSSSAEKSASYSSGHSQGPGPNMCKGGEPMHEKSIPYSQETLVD

[2] = target: T1, Apelin receptor (Rattus norvegicus); assay: Agonist activity at rat apelin receptor expressed in CHO cell membranes coexpressing EGFP assessed as inhibition of forskolin-induced cAMP production after 30 mins by fluorescence analysis relative to control; type: functional, cell-based
[3] = target: T1, Apelin receptor (Rattus norvegicus); assay: Agonist activity at rat apelin receptor expressed in CHO cell membranes coexpressing EGFP assessed as receptor internalization at 100 uM after 20 mins by confocal microscopic analysis; type: cell-based
Apelin receptor [4] = target: T2, Apelin receptor (Rattus norvegicus, UniProt Q9JHG3); assay: as §1; type: functional, cell-based
T2 sequence (Q9JHG3 whole entry): T1 sequence (whole entry)

[5] = target: T3, Type-1 angiotensin II receptor (Homo sapiens, UniProt P30556); assay: Displacement of [125I]-angiotensin 2 from human angiotensin 2 type-1 receptor expressed in CHO cell membranes after 1 hr by gamma counting analysis
T3 sequence (P30556 whole entry): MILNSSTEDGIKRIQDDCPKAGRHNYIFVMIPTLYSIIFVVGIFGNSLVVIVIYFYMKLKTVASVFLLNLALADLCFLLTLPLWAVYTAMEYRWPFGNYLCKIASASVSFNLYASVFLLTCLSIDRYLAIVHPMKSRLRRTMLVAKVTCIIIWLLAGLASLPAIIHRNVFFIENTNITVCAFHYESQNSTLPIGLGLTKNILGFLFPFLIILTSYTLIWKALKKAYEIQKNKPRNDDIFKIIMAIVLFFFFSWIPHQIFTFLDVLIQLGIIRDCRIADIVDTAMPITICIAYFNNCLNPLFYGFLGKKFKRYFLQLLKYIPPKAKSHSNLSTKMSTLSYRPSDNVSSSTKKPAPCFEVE

Apelin receptor [6] = target: T4, Apelin receptor (Homo sapiens, UniProt P35414); assay: Displacement of [125I]-pE13F from human apelin receptor expressed in CHO cell membranes after 1 hr by gamma counting analysis
T4 sequence (P35414 whole entry): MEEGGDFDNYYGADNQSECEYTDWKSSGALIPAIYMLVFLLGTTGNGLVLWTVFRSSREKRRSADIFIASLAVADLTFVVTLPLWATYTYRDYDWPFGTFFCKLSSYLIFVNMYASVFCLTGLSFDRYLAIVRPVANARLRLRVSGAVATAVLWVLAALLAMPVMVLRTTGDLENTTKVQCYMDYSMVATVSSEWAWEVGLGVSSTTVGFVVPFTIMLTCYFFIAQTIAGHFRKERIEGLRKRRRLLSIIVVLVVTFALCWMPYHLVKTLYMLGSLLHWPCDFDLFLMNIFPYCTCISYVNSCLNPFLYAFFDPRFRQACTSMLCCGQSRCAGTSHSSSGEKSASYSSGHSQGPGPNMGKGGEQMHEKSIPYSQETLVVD

[7] = Half life in mouse plasma at 5 uM at 37 degC by LC-MS analysis; type: ADME, cell-free
[8] = target: T1, Apelin receptor (Rattus norvegicus); assay: Agonist activity at rat apelin receptor expressed in CHO cell membranes coexpressing EGFP assessed as receptor internalization at 100 nM after 20 mins by confocal microscopic analysis; type: cell-based
[9] = Dissociation constant, pKa of the compound in water at 2 mM by potentiometric titration analysis; type: physicochemical

Structure (SMILES) | Activity [3] | Ki (Apelin receptor [6]) | other results
CCN(CC)c1ccc2c(-c3ccc(S(=O)(=O)NCCCCCCCCCCCCNC(=O)NCCCC[C@H](NC(=O)Cc4csc(=N)n4C)C(=O)N[C@@H](Cc4cn(Cc5ccccc5)c[n+]4C)C(=O)NC4CCN(C)CC4)cc3S(=O)(=O)[O-])c3ccc(=[N+](CC)CC)cc-3oc2c1 | Active | – | inhibition [1]: Dose-dependent effect; Imax [2]: 100%
CCN(CC)c1ccc(C(=C2C=CC(=[N+](CC)CC)C=C2)c2ccc(S(=O)(=O)NCCCC[C@H](NC(=O)Cc3csc(=N)n3C)C(=O)N[C@@H](Cc3cn(Cc4ccccc4)c[n+]3C)C(=O)NC3CCN(C)CC3)cc2S(=O)(=O)[O-])cc1.O=C(O)C(F)(F)F.O=C(O)C(F)(F)F.O=C([O-])C(F)(F)F | inactive | 0.089 µM | inhibition [1]: Dose-dependent effect; IC50 (Apelin receptor [4]): 1.7 µM; Ki [5]: 98 µM; half-life at 5 µM [7]: > 10 h; Imax [2]: 69%
CCN(CC)c1ccc2c(-c3ccc(S(=O)(=O)NCCCCCCCCCCCCNC(=O)NCCCC[C@H](NC(=O)Cc4csc(=N)n4C)C(=O)N[C@@H](Cc4cn(Cc5ccccc5)c[n+]4C)C(=O)NC4CCN(C)CC4)cc3S(=O)(=O)O)c3ccc(=[N+](CC)CC)cc-3oc2c1 [listing 1 of 2 here] | – | 0.69 µM | IC50 (Apelin receptor [4]): 4.3 µM; Ki [5]: 2.23 µM; half-life at 5 µM [7]: > 10 h
CCN(CC)c1ccc2c(-c3ccc(S(=O)(=O)NCCCCCCCCCCCCNC(=O)NCCCC[C@H](NC(=O)Cc4csc(=N)n4C)C(=O)N[C@@H](Cc4cn(Cc5ccccc5)c[n+]4C)C(=O)NC4CCN(C)CC4)cc3S(=O)(=O)O)c3ccc(=[N+](CC)CC)cc-3oc2c1 [listing 2 of 2 here] | – | 0.43 µM | –
CCN(CC)c1ccc2c(-c3ccc(S(=O)(=O)NCCCC[C@H](NC(=O)Cc4csc(=N)n4C)C(=O)N[C@@H](Cc4cn(Cc5ccccc5)c[n+]4C)C(=O)N[C@@H](C)C(N)=O)cc3S(=O)(=O)O)c3ccc(=[N+](CC)CC)cc-3oc2c1 | – | 0.97 µM | –
CCN(CC)c1ccc2c(-c3ccc(S(=O)(=O)NCCCCCCNC(=O)NCCCC[C@H](NC(=O)Cc4csc(=N)n4C)C(=O)N[C@@H](Cc4cn(Cc5ccccc5)c[n+]4C)C(=O)NC4CCN(C)CC4)cc3S(=O)(=O)[O-])c3ccc(=[N+](CC)CC)cc-3oc2c1 | Active | 0.31 µM | –
CCN(CC)c1ccc2c(-c3ccc(S(=O)(=O)NCCCC[C@H](NC(=O)Cc4csc(=N)n4C)C(=O)N[C@@H](C)C(=O)NC4CCN(C)CC4)cc3S(=O)(=O)[O-])c3ccc(=[N+](CC)CC)cc-3oc2c1 | inactive | 0.45 µM | –
CCN(CC)c1ccc2c(-c3ccc(S(=O)(=O)NCCCC[C@H](NC(=O)Cc4csc(=N)n4C)C(=O)N[C@@H](Cc4cn(Cc5ccccc5)c[n+]4C)C(=O)NC4CCOCC4)cc3S(=O)(=O)[O-])c3ccc(=[N+](CC)CC)cc-3oc2c1 | inactive | 0.98 µM | –
CC(=O)NCCCC[C@H](NC(=O)Cc1csc(=N)n1C)C(=O)N[C@@H](Cc1cn(Cc2ccccc2)c[n+]1C)C(=O)NC1CCN(C)CC1 | – | > 100 µM | –
CCN(CC)c1ccc2c(-c3ccc(S(=O)(=O)NCCCC[C@H](NC(C)=O)C(=O)N[C@@H](Cc4cn(Cc5ccccc5)c[n+]4C)C(=O)NC4CCN(C)CC4)cc3S(=O)(=O)O)c3ccc(=[N+](CC)CC)cc-3oc2c1 | – | 1.2 µM | –
CCN(CC)c1ccc2c(-c3ccc(S(=O)(=O)NCCCC[C@H](NC(=O)Cc4csc(=N)n4C)C(=O)N[C@@H](Cc4cn(Cc5ccccc5)c[n+]4C)C(=O)NC4CCN(C)CC4)cc3S(=O)(=O)[O-])c3ccc(=[N+](CC)CC)cc-3oc2c1.O=C(O)C(F)(F)F.O=C(O)C(F)(F)F.O=C([O-])C(F)(F)F | Active | 0.4 µM | inhibition [1]: Dose-dependent effect; IC50 (Apelin receptor [4]): 3 µM; Ki [5]: > 1000 µM; half-life at 5 µM [7]: > 10 h; Imax [2]: 77%
CCN(CC)c1ccc2c(-c3ccc(S(=O)(=O)NCCCCCCCCCCCCNC(=O)NCCCC[C@H](NC(=O)Cc4csc(=N)n4C)C(=O)N[C@@H](Cc4cn(Cc5ccccc5)cn4)C(=O)NC4CCN(C)CC4)cc3S(=O)(=O)[O-])c3ccc(=[N+](CC)CC)cc-3oc2c1 | – | 1.5 µM | –
CCN(CC)c1ccc2c(-c3ccc(S(=O)(=O)NCCCC[C@H](NC(=O)Cc4csc(=N)n4C)C(=O)N[C@@H](Cc4cn(Cc5ccccc5)c[n+]4C)C(=O)NC4CCN(Cc5ccccc5)CC4)cc3S(=O)(=O)[O-])c3ccc(=[N+](CC)CC)cc-3oc2c1 | Active | 0.27 µM | –
CCN(CC)c1ccc2c(-c3ccc(S(=O)(=O)NCCCCNCCCC[C@H](NC(=O)Cc4csc(=N)n4C)C(=O)N[C@@H](Cc4cn(Cc5ccccc5)c[n+]4C)C(=O)NC4CCN(C)CC4)cc3S(=O)(=O)O)c3ccc(=[N+](CC)CC)cc-3oc2c1 | – | > 100 µM | –
CSCC[C@H](NC(=O)[C@@H]1CCCN1C(=O)CNC(=O)[C@H](CCCCN)NC(=O)[C@H](Cc1cnc[nH]1)NC(=O)[C@H](CO)NC(=O)[C@H](CC(C)C)NC(=O)[C@H](CCCNC(=N)N)NC(=O)[C@@H]1CCCN1C(=O)[C@H](CCCNC(=N)N)NC(=O)[C@H](CCC(N)=O)NC(=O)[C@H](CCCNC(=N)N)NC(=O)[C@H](CCCNC(=N)N)NC(=O)[C@H](Cc1ccccc1)NC(=O)[C@@H](N)CCCCN)C(=O)N1CCC[C@H]1C(=O)N[C@@H](Cc1ccccc1)C(=O)O | – | – | inhibition [1]: Dose-dependent effect; IC50 (Apelin receptor [4]): 0.0014 µM; Ki [5]: > 100 µM; half-life at 5 µM [7]: 0.0767 h; Imax [2]: 85%; Activity [8]: Active
CCN(CC)c1ccc2c(-c3ccc(S(=O)(=O)NCCCC[C@H](NC(=O)Cc4csc(=N)n4C)C(=O)N[C@@H](Cc4cn(Cc5ccccc5)cn4)C(=O)NC4CCN(C)CC4)cc3S(=O)(=O)[O-])c3ccc(=[N+](CC)CC)cc-3oc2c1 | Active | 0.96 µM | –
CCN(CC)c1ccc2c(-c3ccc(S(=O)(=O)NCCCCCCCCCCCCNC(=O)NCCCC[C@H](NC(=O)Cc4csc(=N)n4C)C(=O)N[C@@H](Cc4cn(Cc5ccccc5)cn4)C(=O)NC4CC[N+](C)(C)CC4)cc3S(=O)(=O)O)c3ccc(=[N+](CC)CC)cc-3oc2c1 | – | 3 µM | –
CCN(CC)c1ccc2c(-c3ccc(S(=O)(=O)NCCCCCCCCCCCCNC(=O)NCCCC[C@H](NC(=O)Cc4csc(=N)n4C)C(=O)N[C@@H](Cc4cn(Cc5ccccc5)c[n+]4C)C(=O)NC4CC[N+](C)(C)CC4)cc3S(=O)(=O)O)c3ccc(=[N+](CC)CC)cc-3oc2c1 | – | 1.4 µM | –
CCN(CC)c1ccc2c(-c3ccc(S(=O)(=O)NCCCC[C@H](NC(=O)Cc4csc(=N)n4C)C(=O)N[C@@H](Cc4cn(Cc5ccccc5)c[n+]4C)C(=O)NCC4CCN(C)CC4)cc3S(=O)(=O)[O-])c3ccc(=[N+](CC)CC)cc-3oc2c1 | Active | 0.18 µM | –
CCN(CC)c1ccc2c(-c3ccc(S(=O)(=O)NCCCCCCCCCCCCNC(=O)NCCCC[C@H](NC(=O)Cc4csc(=N)[nH]4)C(=O)N[C@@H](Cc4cn(Cc5ccccc5)cn4)C(=O)NC4CCN(C)CC4)cc3S(=O)(=O)[O-])c3ccc(=[N+](CC)CC)cc-3oc2c1 | – | 9 µM | –
COC(=O)Cc1csc(N)n1 | – | – | pKa at 2000 µM [9]: 4.83
CCN(CC)c1ccc2c(-c3ccc(S(=O)(=O)NCCCC[C@H](NC(=O)Cc4csc(=N)[nH]4)C(=O)N[C@@H](Cc4cn(Cc5ccccc5)c[n+]4C)C(=O)NC4CCN(C)CC4)cc3S(=O)(=O)[O-])c3ccc(=[N+](CC)CC)cc-3oc2c1 | inactive | 0.85 µM | –
COC(=O)Cc1csc(=N)n1C | – | – | pKa at 2000 µM [9]: 9.77

Source: ChEMBL document CHEMBL3232849, “Structure-activity relationship studies toward the discovery of selective apelin receptor agonists” (J Med Chem, 2014)
